Like-named read-outs stand apart in the source and are kept apart here.
Legend:
[1] = test system: HCV genotype 1a subgenomic replicon with NS3 resistance mutation R155K; test: HCV replicon RNA replication assay, R155K 1a; assay type: cell-based, HCV genotype 1a (strain H77), Huh-7 cells; conditions: Hepatitis C virus, read-out: R155K 1a Ec50 (nM)
[2] = test system: HCVPV1b subgenomic replicon (wild type 1b); test: HCV replicon RNA replication assay, wild type 1b; assay type: cell-based, HCV genotype 1b (Con-1), Huh-7 cells; conditions: Hepatitis C virus, read-out: WT 1b Ec50
[3] = test system: HCV genotype 1a subgenomic replicon with NS3 resistance mutation D168V; test: HCV replicon RNA replication assay, D168V 1a; assay type: cell-based, HCV genotype 1a (strain H77), Huh-7 cells; conditions: Hepatitis C virus, read-out: D168V 1a Ec50 (nM)
[4] = test system: HCVPV1a subgenomic replicon (wild type 1a); test: HCV replicon RNA replication assay, wild type 1a; assay type: cell-based, HCV genotype 1a (strain H77), Huh-7 cells; conditions: Hepatitis C virus, read-out: WT 1a Ec50
[5] = test system: HCV genotype 1b subgenomic replicon with NS3 resistance mutation D168V; test: HCV replicon RNA replication assay, D168V 1b; assay type: cell-based, HCV genotype 1b (Con-1), Huh-7 cells; conditions: Hepatitis C virus, read-out: D168V 1b Ec50 (nM)
[6] = Table 1, luciferase replicon, Huh-7, 72 h
[7] = Table 2, clinical comparators, wildtype genotype 1b
[8] = Table 2, clinical comparators, wildtype genotype 1a

| SMILES | EC50 ([1]; Huh-7, 72 h) [nM] | EC50 [2, 6] [nM] | EC50 ([3]; Huh-7, 72 h) [nM] | EC50 [4, 6] [nM] | EC50 ([5]; Huh-7, 72 h) [nM] | EC50 [1] [nM] | EC50 [2, 7] [nM] | EC50 [3] [nM] | EC50 [4, 8] [nM] | EC50 [5] [nM] |
| --- | --- | --- | --- | --- | --- | --- | --- | --- | --- | --- |
| CNC(=O)Cn1ccc(C(=O)N[C@H]2CCCCC/C=C\[C@@H]3C[C@@]3(C(=O)NS(=O)(=O)C3CC3)NC(=O)[C@@H]3C[C@@H](Oc4cc(OC(C)C)nc5c(C)c(OC)ccc45)CN3C2=O)n1 [Compound 1018, (2R,6S,12Z,13aS,14aR,16aS)-N-(cyclopropylsulfonyl)-2-{[7-methoxy-8-methyl-2-(propan-2-yloxy)quinolin-4-yl]oxy}-6-[({1-[2-(methylamino)-2-oxoethyl]-1H-pyrazol-3-yl}carbonyl)amino]-5,16-dioxo-1,2,3,6,7,8,9,10,11,13a,14,15,16,16a-tetradecahydrocyclopropa[e]pyrrolo[1,2-a][1,4]diazacyclopentadecine-14a(5H)-carboxamide] | 4.2 | 3.3 | 9.8 | 2.7 | 2.4 |  |  |  |  |  |
| COc1ccc2c(O[C@@H]3C[C@H]4C(=O)N[C@]5(C(=O)NS(=O)(=O)C6(C)CC6)C[C@H]5/C=C\CCCCC[C@H](NC(=O)c5ccn(C)n5)C(=O)N4C3)cc(OCC(F)(F)F)nc2c1C [Compound 1029, (2R,6S,12Z,13aS,14aR,16aS)-2-{[7-methoxy-8-methyl-2-(2,2,2-trifluoroethoxy)quinolin-4-yl]oxy}-N-[(1-methylcyclopropyl)sulfonyl]-6-{[(1-methyl-1H-pyrazol-3-yl)carbonyl]amino}-5,16-dioxo-1,2,3,6,7,8,9,10,11,13a,14,15,16,16a-tetradecahydrocyclopropa[e]pyrrolo[1,2-a][1,4]diazacyclopentadecine-14a(5H)-carboxamide] | 1.5 |  | 9.5 |  | 0.25 |  |  |  |  |  |
| COCc1ccc(C(=O)N[C@H]2CCCCC/C=C\[C@@H]3C[C@@]3(C(=O)NS(=O)(=O)C3CC3)NC(=O)[C@@H]3C[C@@H](Oc4cc(OC(C)C)nc5c(C)c(OC)ccc45)CN3C2=O)s1 [Compound 1009, (2R,6S,12Z,13aS,14aR,16aS)-N-(cyclopropylsulfonyl)-2-{[7-methoxy-8-methyl-2-(propan-2-yloxy)quinolin-4-yl]oxy}-6-({[5-(methoxymethyl)thiophen-2-yl]carbonyl}amino)-5,16-dioxo-1,2,3,6,7,8,9,10,11,13a,14,15,16,16a-tetradecahydrocyclopropa[e]pyrrolo[1,2-a][1,4]diazacyclopentadecine-14a(5H)-carboxamide] | 3.6 | 0.46 | 7.2 | 0.43 | 0.24 |  |  |  |  |  |
| Cc1c(O)ccc2c(O[C@@H]3C[C@H]4C(=O)N[C@]5(C(=O)NS(=O)(=O)C6(C)CC6)C[C@H]5/C=C\CCCCC[C@H](NC(=O)c5ccn(C)n5)C(=O)N4C3)cc(OC(C)C)nc12 [Compound 1015, (2R,6S,12Z,13aS,14aR,16aS)-2-{[7-hydroxy-8-methyl-2-(propan-2-yloxy)quinolin-4-yl]oxy}-N-[(1-methylcyclopropyl)sulfonyl]-6-{[(1-methyl-1H-pyrazol-3-yl)carbonyl]amino}-5,16-dioxo-1,2,3,6,7,8,9,10,11,13a,14,15,16,16a-tetradecahydrocyclopropa[e]pyrrolo[1,2-a][1,4]diazacyclopentadecine-14a(5H)-carboxamide] | 0.95 | 1.3 | 6.9 | 0.96 | 0.96 |  |  |  |  |  |
| COc1c(F)ccc2c(O[C@@H]3C[C@H]4C(=O)N[C@]5(C(=O)NS(=O)(=O)C6CC6)C[C@H]5/C=C\CCCCC[C@H](NC(=O)c5ccn(C)n5)C(=O)N4C3)cc(OC(C)C)nc12 [Compound 1016, (2R,6S,12Z,13aS,14aR,16aS)-N-(cyclopropylsulfonyl)-2-{[7-fluoro-8-methoxy-2-(propan-2-yloxy)quinolin-4-yl]oxy}-6-{[(1-methyl-1H-pyrazol-3-yl)carbonyl]amino}-5,16-dioxo-1,2,3,6,7,8,9,10,11,13a,14,15,16,16a-tetradecahydrocyclopropa[e]pyrrolo[1,2-a][1,4]diazacyclopentadecine-14a(5H)-carboxamide] | 7.9 | 1.1 | 3.9 | 1.5 | 1 |  |  |  |  |  |
| COc1ccc2c(O[C@@H]3C[C@H]4C(=O)N[C@]5(C(=O)NS(=O)(=O)C6(C)CC6)C[C@H]5/C=C\CCCCC[C@H](NC(=O)c5ccn(CCF)n5)C(=O)N4C3)cc(OC(C)C)nc2c1C [Compound 1004, (2R,6S,12Z,13aS,14aR,16aS)-6-({[1-(2-fluoroethyl)-1H-pyrazol-3-yl]carbonyl}amino)-2-{[7-methoxy-8-methyl-2-(propan-2-yloxy)quinolin-4-yl]oxy}-N-[(1-methylcyclopropyl)sulfonyl]-5,16-dioxo-1,2,3,6,7,8,9,10,11,13a,14,15,16,16a-tetradecahydrocyclopropa[e]pyrrolo[1,2-a][1,4]diazacyclopentadecine-14a(5H)-carboxamide] | 1.3 | 0.27 | 1.8 | 0.24 | 0.15 |  |  |  |  |  |
| CC(C)(C)OC(=O)N[C@H]1CCCCC/C=C\[C@@H]2C[C@@]2(C(=O)NS(=O)(=O)C2CC2)NC(=O)[C@@H]2C[C@@H](OC(=O)N3Cc4cccc(F)c4C3)CN2C1=O [reference compound] |  |  |  |  |  | 690 | 5.4 | 180 | 2.1 | 120 |
| COc1c(F)ccc2c(O[C@@H]3C[C@H]4C(=O)N[C@]5(C(=O)NS(=O)(=O)C6(C)CC6)C[C@H]5/C=C\CCCCC[C@H](NC(=O)c5ccn(CCF)n5)C(=O)N4C3)cc(OC(C)C)nc12 [Compound 1021, (2R,6S,12Z,13aS,14aR,16aS)-6-({[1-(2-fluoroethyl)-1H-pyrazol-3-yl]carbonyl}amino)-2-{[7-fluoro-8-methoxy-2-(propan-2-yloxy)quinolin-4-yl]oxy}-N-[(1-methylcyclopropyl)sulfonyl]-5,16-dioxo-1,2,3,6,7,8,9,10,11,13a,14,15,16,16a-tetradecahydrocyclopropa[e]pyrrolo[1,2-a][1,4]diazacyclopentadecine-14a(5H)-carboxamide] | 1.9 | 0.48 | 0.93 | 0.34 | 0.53 |  |  |  |  |  |
| COc1ccc2c(O[C@@H]3C[C@H]4C(=O)N[C@]5(C(=O)NS(=O)(=O)C6(C)CC6)C[C@H]5/C=C\CCCCC[C@H](NC(=O)c5ccn(CC(F)(F)F)n5)C(=O)N4C3)cc(OC(C)C)nc2c1C [Compound 1005, (2R,6S,12Z,13aS,14aR,16aS)-2-{[7-methoxy-8-methyl-2-(propan-2-yloxy)quinolin-4-yl]oxy}-N-[(1-methylcyclopropyl)sulfonyl]-5,16-dioxo-6-({[1-(2,2,2-trifluoroethyl)-1H-pyrazol-3-yl]carbonyl}amino)-1,2,3,6,7,8,9,10,11,13a,14,15,16,16a-tetradecahydrocyclopropa[e]pyrrolo[1,2-a][1,4]diazacyclopentadecine-14a(5H)-carboxamide] | 0.85 | 0.16 | 1.4 | 0.18 | 0.17 |  |  |  |  |  |
| COc1ccc2c(O[C@@H]3C[C@H]4C(=O)N[C@]5(C(=O)NS(=O)(=O)C6(C)CC6)C[C@H]5/C=C\CCCCC[C@H](NC(=O)c5ccn(C)n5)C(=O)N4C3)cc(OC(C)C)nc2c1C [Compound 1007, (2R,6S,12Z,13aS,14aR,16aS)-2-{[7-methoxy-8-methyl-2-(propan-2-yloxy)quinolin-4-yl]oxy}-N-[(1-methylcyclopropyl)sulfonyl]-6-{[(1-methyl-1H-pyrazol-3-yl)carbonyl]amino}-5,16-dioxo-1,2,3,6,7,8,9,10,11,13a,14,15,16,16a-tetradecahydrocyclopropa[e]pyrrolo[1,2-a][1,4]diazacyclopentadecine-14a(5H)-carboxamide] | 1.7 | 0.2 | 4.5 | 0.25 | 0.18 |  |  |  |  |  |
| CC[C@@H]1C[C@]1(NC(=O)[C@@H]1C[C@@H]2CN1C(=O)[C@H](C(C)(C)C)NC(=O)OCC(C)(C)CCCCc1cccc3c1CN(C3)C(=O)O2)C(=O)NS(=O)(=O)C1CC1 [reference compound] |  |  |  |  |  |  | 1.2 | 3900 | 0.4 |  |
| COc1ccc2c(O[C@@H]3C[C@H]4C(=O)N[C@]5(C(=O)NS(=O)(=O)C6CC6)C[C@H]5/C=C\CCCCC[C@H](NC(=O)c5ccn(CC(F)(F)F)n5)C(=O)N4C3)cc(OC(C)C)nc2c1C [Compound 1012, (2R,6S,12Z,13aS,14aR,16aS)-N-(cyclopropylsulfonyl)-2-{[7-methoxy-8-methyl-2-(propan-2-yloxy)quinolin-4-yl]oxy}-5,16-dioxo-6-({[1-(2,2,2-trifluoroethyl)-1H-pyrazol-3-yl]carbonyl}amino)-1,2,3,6,7,8,9,10,11,13a,14,15,16,16a-tetradecahydrocyclopropa[e]pyrrolo[1,2-a][1,4]diazacyclopentadecine-14a(5H)-carboxamide] |  | 0.24 | 1.9 | 0.29 | 0.31 |  |  |  |  |  |
